{"source": "patent US20050245541A1", "about": "“Methods for treating alcoholism” (priority 2004, published 2005)", "key": {"[1]": {"tested_on": "rat model of alcohol self-administration", "experiment": "Ethanol self-administration (operant lever press) in trained rats", "assay_type": "in vivo, rat (male Wistar)", "protocol": "FIG. 1B is a bar graph showing the amount of ethanol (EtOH) consumed in g/kg at various doses of naltrexone. Based on the number of lever press responses following a dose of naltrexone (FIG. 1A), the corresponding amount of absolute ethanol consumed (g/kg) was calculated. To calculate the amount of absolute ethanol consumed, divide the number of lever presses by 2 to obtain the number of earned reinforcements. From this number, the total volume of the alcohol “cocktail” (10% EtOH in 0.04% saccharine solution) consumed was obtained. The grams of absolute EtOH consumed=the total “cocktail” volume consumed×10% EtOH×0.793 g EtOH/mL. The amount of ethanol (g) divided by the animal's weight (kg) gives the amount of absolute ethanol consumed in g/kg.\nMale Wistar rats (starting weight of 200±30 grams; Charles River Laboratories, Mass.) were individually housed with free access to food and water. The vivarium was maintained within the temperature and relative humidity range specified within the Guide for Care and Use of Laboratory Animals (NIH Publication No. 86-23, revised 1985). These conditions were recorded once daily throughout the study. The vivarium was on a 12 hour light/dark schedule. All animal studies were reviewed and approved by the Alkermes' IACUC (protocol #04-2A).\nAnimals were trained daily in an operant chamber to press a lever to receive access to an ethanol cocktail as a reinforcer using a saccharin fading procedure. […] The final ethanol cocktail contained 10% ethanol in 0.04% saccharine. Each session lasted 30 minutes, during which the rat could press the lever twice to gain access to 0.1 mL of the ethanol cocktail. The operant chamber (Coulbourne Instruments, Allentown, Pa.) is a computer-controlled automated system which recorded the number of lever presses completed by a rat. At the end of the training period (6-8 weeks), rats which consistently drank a sufficient quantity of ethanol to produce a pharmacological effect (minimum intake of 0.6 g/kg/hour) were selected to participate in the drug studies. These trained rats were used repeatedly throughout these studies to control for intra-subject variability. All drugs were administered acutely with a minimum of a 2 day drug washout period.\nNaltrexone was prepared daily in 0.9% saline and administered subcutaneously (SC). The dopamine D2 partial agonist aripiprazole was suspended in 3% carboxymethyl cellulose; a total volume of 1 mL/kg of this suspension was delivered orally (PO) to the rat using a gavage tube. See Table 1 for source and lot numbers of the drugs tested.\nThe ability of naltrexone to reduce ethanol drinking (i.e., decrease the number of lever presses) was assessed in this animal model of self administration of ethanol. Thirty minutes after the administration of naltrexone (0-6 mg/kg, SC), the animals were placed in the operant chamber and allowed to lever press for the 10% ethanol cocktail. The total number of lever presses was recorded over the 30 minute test session. The rats were repeatedly dosed with naltrexone to generate a dose-response curve for each individual animal.\nThe dopamine D2 partial agonist aripiprazole was coadministered with naltrexone to determine if it affected naltrexone's ability to decease ethanol drinking. The dose of naltrexone used in this series of studies was the ED50 (that is, the dose of naltrexone that produced a 50% decrease in lever responses for ethanol as determined from the dose-response study). This dose allows one to determine if the coadministered drugs impaired or enhanced naltrexone's effect on ethanol drinking. Aripiprazole was administered orally 30 minutes prior to a naltrexone injection (SC) (i.e., 60 minutes prior to the beginning of the ethanol drinking test session). The number of lever presses for the ethanol cocktail was recorded at the end of the 30 minute session."}, "[2]": {"tested_on": "audiogenic-induced convulsions in mice exhibiting symptoms of alcohol withdrawal", "experiment": "Audiogenic-induced convulsions in mouse model of alcohol withdrawal", "assay_type": "in vivo, mouse (male C57BL/6)", "conditions": "for Withdrawal Rating (mean ± sem), behavioral response scale of 1-4: mouse", "protocol": "Male C57BL/6 mice (starting weight of 15-18 grams; Charles River Laboratories, Mass.) were housed in groups of 4 on a ventilated rack with free access to food and water. The vivarium was maintained within the temperature and relative humidity range specified within the Guide for Care and Use of Laboratory Animals (NIH Publication No. 86-23, revised 1985). These conditions were recorded once daily throughout the study. The vivarium was on a 12 hour light/dark schedule. All animal studies were reviewed and approved by the Alkermes' IACUC (protocol #04-8A).\nPersistent high alcohol levels in blood and brain are required to develop withdrawal symptoms following termination of alcohol availability. […] Alcohol is provided in a nutritionally balanced liquid diet. This diet becomes the animal's sole source of food and water. While the experimenter controls the duration of the alcohol exposure, the animal determines the dose and pattern of consumption.\nAfter a 3-5 day acclimation period, the mice were individually identified (tail mark with permanent marker) and weighed. The normal rodent chow and water was replaced with a nutritionally complete control liquid diet (Bio-Serv, Lieber-DeCarli diet) for a 5-7 day habituation period. Acquisition of EtOH drinking in mice involved a gradually escalating ethanol concentration procedure. Ethanol treated animals received an EtOH liquid diet containing 1.5% EtOH for 5-7 days. The EtOH concentration was increased every 5-7 days to a final concentration of 6.7%. The liquid diet was administered in a screw capped graduated 100 mL liquid feeding tube mounted inside the cage. The volume of remaining diet was measured and the diet changed daily. The mice were observed daily and weighed every week to assure adequate EtOH diet intake.\nDevelopment of alcohol withdrawal symptoms requires a cycle of alcohol/no alcohol. The animals were given a period of 14 days of the EtOH diet (6.7%), 2 days of control diet (balanced isocalorically with maltose dextrin replacing the EtOH) and 5-6 days of the EtOH diet.\nOne of the hallmark symptoms of alcohol withdrawal in mice is the occurrence of convulsions. These can occur spontaneously, from handling the animal, from a sudden loud sound (audiogenic) or from subthreshold doses of chemical convulsants. For this series of studies, the occurrence of audiogenic-induced convulsions was used as a measure of alcohol withdrawal. […]\nMice from each cage were randomly assigned to one of three groups, vehicle+saline, aripiprazole (10 mg/kg, PO)+saline, or aripiprazole (10 mg/kg, PO)+naltrexone (3 mg/kg, IP). […] Each mouse's behavior in response to the bell was observed by two investigators and the agreed upon results were recorded."}, "[3]": {"tested_on": "rat model of alcohol self-administration", "experiment": "Ethanol self-administration (operant lever press) in trained rats", "assay_type": "in vivo, rat (male Wistar)", "conditions": "naltrexone 0.5 mg/kg sc, 0.1% saccharine solution substituted for ethanol cocktail"}}, "note": "Entries after “also recorded” stand apart in the source; their conditions may differ.", "data": [{"smiles": "O=C1CCc2ccc(OCCCCN3CCN(c4cccc(Cl)c4Cl)CC3)cc2N1", "note": "[Aripiprazole, 7-{4-[4-(2,3-dichlorophenyl)-1-piperazinyl]-butoxy}-3-,4-dihydro carbostyril]", "values": [{"measurement": "Number of Lever Presses (mean ± sem)", "setting": "[1]; aripiprazole 0.1 mg/kg PO + naltrexone 0.1 mg/kg SC, rat", "result": "42 ± 11"}, {"measurement": "Number of Lever Presses (mean ± sem)", "setting": "[1]; aripiprazole 1.0 mg/kg PO + naltrexone 0.1 mg/kg SC, rat", "result": "45 ± 8"}, {"measurement": "Number of Lever Presses (mean ± sem)", "setting": "[1]; aripiprazole 10.0 mg/kg PO + naltrexone 0.1 mg/kg SC, rat", "result": "37 ± 7"}, {"measurement": "Number of Lever Presses (mean ± sem)", "setting": "[1]; aripiprazole 10.0 mg/kg PO, no naltrexone, rat", "result": "118 ± 26"}, {"measurement": "Ethanol-motivated lever presses, combination of naltrexone and aripiprazole versus naltrexone alone", "setting": "[1]; aripiprazole 0.1-10 mg/kg PO + naltrexone SC, rat", "result": "no statistical difference"}, {"measurement": "Withdrawal Rating (mean ± sem), behavioral response scale of 1-4", "setting": "[2]; aripiprazole 10 mg/kg PO + naltrexone 3 mg/kg", "result": "1.0 ± 0.0"}, {"measurement": "Withdrawal Rating (mean ± sem), behavioral response scale of 1-4", "setting": "[2]; aripiprazole 10 mg/kg PO + saline", "result": "1.0 ± 0.0"}, {"measurement": "Anticonvulsant effect on the audiogenic convulsion test", "setting": "[2]; aripiprazole 10 mg/kg PO with or without naltrexone, p=0.004", "result": "significant drug effect (anticonvulsant effect)"}]}, {"smiles": "O=C1CC[C@@]2(O)[C@H]3Cc4ccc(O)c5c4[C@@]2(CCN3CC2CC2)[C@H]1O5", "note": "[Naltrexone]", "values": [{"measurement": "Number of Lever Presses (mean ± sem)", "setting": "[1]; aripiprazole 0.0 mg/kg PO (vehicle) + naltrexone 0.1 mg/kg SC, rat", "result": "62 ± 13"}, {"measurement": "Decrease in lever presses versus baseline and vehicle control (significance)", "setting": "[1]; lowest dose of naltrexone tested, 0.05 mg/kg", "result": "no significant decrease"}, {"measurement": "Decrease in the number of lever presses compared to baseline", "setting": "[1]; naltrexone alone group of the aripiprazole interaction study (naltrexone 0.1 mg/kg SC per Table 4)", "result": 47.54, "unit": "%"}, {"measurement": "Difference between naltrexone and non-naltrexone groups on the audiogenic convulsion test", "setting": "[2]; naltrexone 3 mg/kg coadministered with aripiprazole 10 mg/kg PO", "result": "no statistical differences"}, {"measurement": "Specificity of decrease in drinking: lever pressing for saccharine versus ethanol cocktail", "setting": "[3]", "result": "to the same degree as under the non-drug baseline condition; also recorded: selective for decreasing ethanol drinking in rats (but not saccharine drinking)"}]}]}
